According to patent publication US20250333424A1, “ANTIVIRAL COMPOUNDS” (Gilead Sciences, Inc., priority 2024, published 2025):

tested on: monocytic THP1 cells infected with HIV VSV-G pseudotyped GFP-NEF reporter virus; experiment: cells; type: cell-based; details: Human immunodeficiency virus 1, THP-1, 24 h

How did the EC50 turn out when `Cc1cc([C@@H]2C[C@@H]2C#N)cc(C)c1Oc1nc(NC23CC(C#N)(C2)C3)nc2nn(C)cc12` (racemic) [Compound 131, (rac)-3-[[4-[4-[(1R,2S)-2-cyanocyclopropyl]-2,6-dimethyl-phenoxy]-2-methyl-pyrazolo[3,4-d]pyrimidin-6-yl]amino]bicyclo[1.1.1]pentane-1-carbonitrile] was run?
Its EC50 is 1470 nM.

`Cc1cc([C@H]2C[C@@H]2C#N)cc(C)c1Oc1nc(NC23CC(C#N)(C2)C3)nc2nn(C)cc12` (racemic) [Compound 132, (rac)-3-((4-(4-((1S,2S)-2-cyanocyclopropyl)-2,6-dimethylphenoxy)-2-methyl-2H-pyrazolo[3,4-d]pyrimidin-6-yl)amino)bicyclo[1.1.1]pentane-1-carbonitrile] was tested. Which EC50 did it give?
The EC50 was 267 nM.

Which EC50 does the source give for `Cc1cc([C@@H]2C[C@H]2C#N)cc(C)c1Oc1nc(NC23CC(C#N)(C2)C3)nc2nn(C)cc12` (racemic) [Compound 134, (rac)-3-((4-(4-((1R,2R)-2-cyanocyclopropyl)-2,6-dimethylphenoxy)-2-methyl-2H-pyrazolo[3,4-d]pyrimidin-6-yl)amino)bicyclo[1.1.1]pentane-1-carbonitrile] here?
The EC50 was 262 nM.

With `Cc1cc(/C=C/C#N)cc(C)c1Oc1nc(NC23CC(C#N)(C2)C3)nc2c1C1OCCCN1C2=O` (racemic) [Compound 278, (E)-3-((4-(4-(2-cyanovinyl)-2,6-dimethylphenoxy)-10-oxo-4b,7,8,10-tetrahydro-6H-pyrimido[5′,4′:3,4]pyrrolo[2,1-b][1,3]oxazin-2-yl)amino)bicyclo[1.1.1]pentane-1-carbonitrile] as the compound, how does the EC50 read?
The EC50 was 30.8 nM.

With `Cc1cc(/C=C/C#N)cc(C)c1Oc1nc(NC23CC(C#N)(C2)C3)nc2c1[C@@]1(C)O[C@H]3CC[C@H]3N1C2=O` (relative stereo) [Compound 285, 3-(((4bR,5aS,7aR)-4-(4-((E)-2-cyanovinyl)-2,6-dimethylphenoxy)-4b-methyl-9-oxo-4b,5a,6,7,7a,9-hexahydrocyclobuta[4′,5′]oxazolo[3′,2′:1,5]pyrrolo[3,4-d]pyrimidin-2-yl)amino)bicyclo[1.1.1]pentane-1-carbonitrile] as the compound, how does the EC50 read?
Its EC50 is 92.5 nM.

With `Cc1cc(/C=C/C#N)cc(C)c1Oc1nc(NC23CC(C#N)(C2)C3)nc2nnn(C(F)F)c12` (single isomer, unassigned) [Compound 11, (E)-3-((7-(4-(2-cyanovinyl)-2,6-dimethylphenoxy)-1-(difluoromethyl)-1H-[1,2,3]triazolo[4,5-d]pyrimidin-5-yl)amino)bicyclo[1.1.1]pentane-1-carbonitrile] as the compound, how does the EC50 read?
The EC50 was 27.7 nM.

How did the EC50 turn out when `Cc1cc(/C=C/C#N)cc(C)c1Oc1nc(NC23CC(C#N)(C2)C3)nc2nc(C)n(Cc3ccn[nH]3)c12` (single isomer, unassigned) [Compound 18, (E)-3-((7-((1H-pyrazol-5-yl)methyl)-6-(4-(2-cyanovinyl)-2,6-dimethylphenoxy)-8-methyl-7H-purin-2-yl)amino)bicyclo[1.1.1]pentane-1-carbonitrile] was run?
The EC50 was 24 nM.

With `Cc1cc(/C=C/C#N)cc(C)c1Oc1nc(NC23CC(C#N)(C2)C3)nc2c1nc(C)n2Cc1ccn[nH]1` (single isomer, unassigned) [Compound 19, (E)-3-((9-((1H-pyrazol-5-yl)methyl)-6-(4-(2-cyanovinyl)-2,6-dimethylphenoxy)-8-methyl-9H-purin-2-yl)amino)bicyclo[1.1.1]pentane-1-carbonitrile] as the compound, how does the EC50 read?
Its EC50 is 90.9 nM.

`Cc1cc(/C=C/C#N)cc(C)c1Oc1nc(NC23CC(C#N)(C2)C3)nc2nc(C)n(CC(F)F)c12` (single isomer, unassigned) [Compound 20, (E)-3-((6-(4-(2-cyanovinyl)-2,6-dimethylphenoxy)-7-(2,2-difluoroethyl)-8-methyl-7H-purin-2-yl)amino)bicyclo[1.1.1]pentane-1-carbonitrile] was tested. Which EC50 did it give?
The EC50 was 25.5 nM.

`Cc1cc(/C=C/C#N)cc(C)c1Oc1nc(NC23CC(C#N)(C2)C3)nc2c1nc(C)n2CC(F)F` (single isomer, unassigned) [Compound 21, (E)-3-((6-(4-(2-cyanovinyl)-2,6-dimethylphenoxy)-9-(2,2-difluoroethyl)-8-methyl-9H-purin-2-yl)amino)bicyclo[1.1.1]pentane-1-carbonitrile] was tested. Which EC50 did it give?
The EC50 was 280 nM.

With `Cc1cc(/C=C/C#N)cc(C)c1Oc1nc(NC23CC(C#N)(C2)C3)nc2nn(C(F)F)nc12` (single isomer, unassigned) [Compound 22, (E)-3-((7-(4-(2-cyanovinyl)-2,6-dimethylphenoxy)-2-(difluoromethyl)-2H-[1,2,3]triazolo[4,5-d]pyrimidin-5-yl)amino)bicyclo[1.1.1]pentane-1-carbonitrile] as the compound, how does the EC50 read?
The EC50 was 259 nM.

For `Cc1cc(/C=C/C#N)cc(C)c1Oc1nc(NC23CC(C#N)(C2)C3)nc2nn(C)c(Cl)c12` (single isomer, unassigned) [Compound 95, (E)-3-((3-chloro-4-(4-(2-cyanovinyl)-2,6-dimethylphenoxy)-1-methyl-11H-pyrazolo[3,4-d]pyrimidin-6-yl)amino)bicyclo[1.1.1]pentane-1-carbonitrile], which EC50 is on record?
Its EC50 is 30.6 nM.

With `Cc1cc(/C=C/C#N)cc(C)c1Oc1nc(NC23CC(C#N)(C2)C3)nc2c1c(Cl)nn2C` (single isomer, unassigned) [Compound 96, (E)-3-((3-chloro-4-(4-(2-cyanovinyl)-2,6-dimethylphenoxy)-1-methyl-11H-pyrazolo[3,4-d]pyrimidin-6-yl)amino)bicyclo[1.1.1]pentane-1-carbonitrile] as the compound, how does the EC50 read?
Its EC50 is 360 nM.

With `Cc1cc([C@H]2C[C@@H]2C#N)cc(C)c1Oc1nc(NC23CC(C#N)(C2)C3)nc2nn(C)cc12` (single isomer, unassigned) [Compound 133] as the compound, how does the EC50 read?
Its EC50 is 511 nM.

`Cc1cc(/C=C/C#N)cc(C)c1Oc1nc(NC23CC(C#N)(C2)C3)nc2nc3n(c12)CCCO3` (single isomer, unassigned) [Compound 182, (E)-3-((4-(4-(2-cyanovinyl)-2,6-dimethylphenoxy)-7,8-dihydro-6H-[1,3]oxazino[2,3-f]purin-2-yl)amino)bicyclo[1.1.1]pentane-1-carbonitrile] was tested. Which EC50 did it give?
Its EC50 is 34.2 nM.

Which EC50 does the source give for `Cc1cc(/C=C/C#N)cc(C)c1Oc1nc(NC23CC(C#N)(C2)C3)nc2c1nc1n2CCCO1` (single isomer, unassigned) [Compound 183, (E)-3-((4-(4-(2-cyanovinyl)-2,6-dimethylphenoxy)-8,9-dihydro-7H-[1,3]oxazino[3,2-e]purin-2-yl)amino)bicyclo[1.1.1]pentane-1-carbonitrile] here?
Its EC50 is 80 nM.

For `Cc1cc(/C=C/C#N)cc(C)c1Oc1nc(NC23CC(C#N)(C2)C3)nc2nc3n(c12)C[C@@H](F)CO3` (single isomer, unassigned) [Compound 191], which EC50 is on record?
The EC50 was 51.8 nM.

`Cc1cc(/C=C/C#N)cc(C)c1Oc1nc(NC23CC(C#N)(C2)C3)nc2nc3n(c12)C[C@H](F)CO3` (single isomer, unassigned) [Compound 192] was tested. Which EC50 did it give?
Its EC50 is 27.1 nM.

For `Cc1cc(/C=C/C#N)cc(C)c1Oc1nc(NC23CC(C#N)(C2)C3)nc2nc3n(c12)C[C@@H](O)CO3` (single isomer, unassigned) [Compound 193], which EC50 is on record?
Its EC50 is 319 nM.

How did the EC50 turn out when `Cc1cc(/C=C/C#N)cc(C)c1Oc1nc(NC23CC(C#N)(C2)C3)nc2nc3n(c12)C[C@H](O)CO3` (single isomer, unassigned) [Compound 194] was run?
The EC50 was 49.7 nM.

How did the EC50 turn out when `Cc1cc(/C=C/C#N)cc(C)c1Oc1nc(NC23CC(C#N)(C2)C3)nc2c1[C@H]1OC[C@H](F)CN1C2=O` (single isomer, unassigned) [Compound 281] was run?
The EC50 was 74.2 nM.

For `Cc1cc(/C=C/C#N)cc(C)c1Oc1nc(NC23CC(C#N)(C2)C3)nc2c1[C@@H]1OC[C@H](F)CN1C2=O` (single isomer, unassigned) [Compound 282], which EC50 is on record?
Its EC50 is 50.1 nM.

Which EC50 does the source give for `Cc1cc(/C=C/C#N)cc(C)c1Oc1nc(NC23CC(C#N)(C2)C3)nc2c1[C@@]1(C)O[C@@H]3CC[C@@H]3N1C2=O` (single isomer, unassigned) [Compound 283] here?
Its EC50 is 44.8 nM.

`Cc1cc(/C=C/C#N)cc(C)c1Oc1nc(NC23CC(C#N)(C2)C3)nc2c1[C@]1(C)O[C@@H]3CC[C@@H]3N1C2=O` (single isomer, unassigned) [Compound 284] was tested. Which EC50 did it give?
Its EC50 is 34.9 nM.

With `CO[C@H]1COC2(C)c3c(Oc4c(C)cc(/C=C/C#N)cc4C)nc(NC45CC(C#N)(C4)C5)nc3C(=O)N2C1` (single isomer, unassigned) [Example 235] as the compound, how does the EC50 read?
Its EC50 is 22.8 nM.

`Cc1cc(/C=C/C#N)cc(C)c1Oc1nc(NC23CC(C#N)(C2)C3)nc2c1C1(C)O[C@H](C)CCN1C2=O` (single isomer, unassigned) [Example 242] was tested. Which EC50 did it give?
Its EC50 is 36.4 nM.

How did the EC50 turn out when `Cc1cc(/C=C/C#N)cc(C)c1Oc1nc(NC23CC(C#N)(C2)C3)nc2c1C1(C)OC[C@@H](C)CN1C2=O` (single isomer, unassigned) [Example 243] was run?
The EC50 was 219 nM.

With `CO[C@@H]1COC2(C)c3c(Oc4c(C)cc(/C=C/C#N)cc4C)nc(NC45CC(C#N)(C4)C5)nc3C(=O)N2C1` (single isomer, unassigned) [Example 244] as the compound, how does the EC50 read?
The EC50 was 111 nM.

How did the EC50 turn out when `Cc1cc(/C=C/C#N)cc(C)c1Oc1nc(NC23CC(C#N)(C2)C3)nc2c1C1(C)OC[C@H](C)CN1C2=O` (single isomer, unassigned) [Example 245] was run?
Its EC50 is 22.3 nM.

With `Cc1cc(/C=C/C#N)cc(C)c1Oc1nc(NC23CC(C#N)(C2)C3)nc2c1[C@]1(C)O[C@@H](C)CN1C2=O` (single isomer, unassigned) [Example 248] as the compound, how does the EC50 read?
Its EC50 is 121 nM.

For `Cc1cc(/C=C/C#N)cc(C)c1Oc1nc(NC23CC(C#N)(C2)C3)nc2c1[C@@]1(C)O[C@@H](C)CN1C2=O` (single isomer, unassigned) [Example 249], which EC50 is on record?
The EC50 was 75.7 nM.

With `Cc1cc(/C=C/C#N)cc(C)c1Oc1nc(NC23CC(C#N)(C2)C3)nc2c1C1(C)O[C@H](C)CN1C2=O` (single isomer, unassigned) [Example 251] as the compound, how does the EC50 read?
Its EC50 is 73.2 nM.

How did the EC50 turn out when `CO[C@H]1COC2c3c(Oc4c(C)cc(/C=C/C#N)cc4C)nc(NC45CC(C#N)(C4)C5)nc3C(=O)N2C1` (single isomer, unassigned) [Example 252] was run?
Its EC50 is 77.1 nM.

For `CCOc1cc(/C=C/C#N)cc(Cl)c1Oc1nc(NC23CC(C#N)(C2)C3)nc2[nH]nc(C)c12` [Compound 3, (E)-3-((4-(2-chloro-4-(2-cyanovinyl)-6-ethoxyphenoxy)-3-methyl-11H-pyrazolo[3,4-d]pyrimidin-6-yl)amino)bicyclo[1.1.1]pentane-1-carbonitrile], which EC50 is on record?
The EC50 was 29.6 nM.
